Results on 13 compounds are retold here after patent US10160729B2, “Hsp70 modulators and methods for making and using the same” (Memorial Sloan Kettering Cancer Center, priority 2014, dated 2018).

Some results are limits rather than exact numbers.

For this assay, the system named is MOLM-13 cells. Nature of the assay: Caspase cleavage assay (Caspase3, 7 activation). Type of assay: cell-based. As to conditions: Homo sapiens, 16 h treatment, caspase substrate Z-DEVD-R110, read-out: c* Concentration at which 50% of the maximum signal was achieved (caspase activation). An outline of the steps:
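Cells (30,000/well, RPMI) treated 16 h with compound or DMSO in triplicate, then given buffer with 10 mM HEPES pH 7.5, 2 mM EDTA, 0.1% CHAPS and 25 μM Z-DEVD-R110. Fluorescence read once signal stabilized; results given as percentage increase in apoptotic cells versus DMSO-treated control.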
As for `CN1CCN(c2ncc(Sc3ccc(C(N)=O)c(C(F)(F)F)c3)c(OCc3cccc(Cl)c3)n2)CC1` [compound 131, 4-((4-((3-Chlorobenzyl)oxy)-2-(4-methylpiperazin-1-yl)pyrimidin-5-yl)thio)-2-(trifluoromethyl)benzamide], the EC50 is less than 0.2 µM. As to `CN1CCN(c2ncc(Sc3ccc(C(N)=O)c(C(F)(F)F)c3)c(OCc3ccc(F)c(Cl)c3)n2)CC1` [compound 132, 4-((4-((3-Chloro-4-fluorobenzyl)oxy)-2-(4-methylpiperazin-1-yl)pyrimidin-5-yl)thio)-2-(trifluoromethyl)benzamide], the EC50 is less than 0.2 µM.

With `CN1CCN(c2ncc(Sc3ccc(C(N)=O)c(C(F)(F)F)c3)c(OCc3cc(Cl)ccc3F)n2)CC1` [compound 133, 4-((4-((5-Chloro-2-fluorobenzyl)oxy)-2-(4-methylpiperazin-1-yl)pyrimidin-5-yl)thio)-2-(trifluoromethyl)benzamide], the EC50 is less than 0.2 µM.

Consider `CN1CCN(c2ncc(Sc3ccc(C(N)=O)c(C(F)(F)F)c3)c(OCc3ccc(F)c(Br)c3)n2)CC1` [compound 134, 4-((4-((3-Bromo-4-fluorobenzyl)oxy)-2-(4-methylpiperazin-1-yl)pyrimidin-5-yl)thio)-2-(trifluoromethyl)benzamide], for which the EC50 lay in the range of 0.2 to 0.4 µM. Regarding `CN1CCN(c2ncc(Sc3ccc(C(N)=O)c(C(F)(F)F)c3)c(OCc3ccc(F)cc3F)n2)CC1` [compound 135, 4-((4-((2,4-Difluorobenzyl)oxy)-2-(4-methylpiperazin-1-yl)pyrimidin-5-yl)thio)-2-(trifluoromethyl)benzamide], the EC50 lay in the range of 0.2 to 0.4 µM. For the compound `COc1cccc(COc2nc(N3CCN(C)CC3)ncc2Sc2ccc(C(N)=O)c(C(F)(F)F)c2)c1` [compound 136, 4-((4-((3-Methoxybenzyl)oxy)-2-(4-methylpiperazin-1-yl)pyrimidin-5-yl)thio)-2-(trifluoromethyl)benzamide], the EC50 is less than 0.2 µM. With `COc1cc(COc2nc(N3CCN(C)CC3)ncc2Sc2ccc(C(N)=O)c(C(F)(F)F)c2)ccc1F` [compound 137, 4-((4-((4-Fluoro-3-methoxybenzyl)oxy)-2-(4-methylpiperazin-1-yl)pyrimidin-5-yl)thio)-2-(trifluoromethyl)benzamide], the EC50 was less than 0.2 µM. The same measure for `COc1ccc(F)c(COc2nc(N3CCN(C)CC3)ncc2Sc2ccc(C(N)=O)c(C(F)(F)F)c2)c1` [compound 138, 4-((4-((2-Fluoro-5-methoxybenzyl)oxy)-2-(4-methylpiperazin-1-yl)pyrimidin-5-yl)thio)-2-(trifluoromethyl)benzamide]: less than 0.2 µM; for `CN1CCN(c2ncc(Sc3ccc(C(N)=O)c(C(F)(F)F)c3)c(OCc3cccc(N(C)C)c3)n2)CC1` [compound 139, 4-((4-((3-(Dimethylamino)benzyl)oxy)-2-(4-methylpiperazin-1-yl)pyrimidin-5-yl)thio)-2-(trifluoromethyl)benzamide]: less than 0.2 µM; for `CN1CCN(c2ncc(Sc3ccc(C(N)=O)c(C(F)(F)F)c3)c(NCc3cccc(Cl)c3)n2)CC1` [compound 141, 4-((4-((3-Chlorobenzyl)amino)-2-(4-methylpiperazin-1-yl)pyrimidin-5-yl)thio)-2-(trifluoromethyl)benzamide]: 1 to 1.2 µM.

For the compound `COc1cc(COc2nc(N3CCN(C)CC3)ncc2Sc2ccc(N)nc2)ccc1F` [compound 151, 5-((4-((4-Fluoro-3-methoxybenzyl)oxy)-2-(4-methylpiperazin-1-yl)pyrimidin-5-yl)thio)pyridin-2-amine], the EC50 is less than 0.2 µM.

In the case of `CN1CCN(c2ncc(Sc3ccc(N)nc3)c(OCc3cccc(C#N)c3)n2)CC1` [compound 152, 3-(((5-((6-Aminopyridin-3-yl)thio)-2-(4-methylpiperazin-1-yl)pyrimidin-4-yl)oxy)methyl)benzonitrile], the EC50 lay in the range of 0.2 to 0.4 µM. The same measure for `CN1CCN(c2ncc(Sc3ccc(N)nc3)c(OCc3cccc(N(C)C)c3)n2)CC1` [compound 153, 5-((4-((3-(Dimethylamino)benzyl)oxy)-2-(4-methylpiperazin-1-yl)pyrimidin-5-yl)thio)pyridin-2-amine]: less than 0.2 µM.
